Experiments:
MRGPRX4 = MRGPRX4 (Homo sapiens, UniProt Q96LA9); assay: MRGPRX4 activation, Fluo-8 Ca2+ FLIPR assay in HEK293T cells stably expressing MRGPRX4; assay type: cell-based; design: key to MRGPRX4 activation, Average / MRGPRX4 activation, Ave.: fluorescence change dF/F0; details: for EC50: MRGPRX4 activation, Ca2+ fluorescence, no activation in tested range reported as III, read-out: Activity (EC50 μM)
Outline: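 Response measured as dF/F0: 30 s baseline, then 150 s after compound addition on FLIPR Tetra, in HHBS after 40-60 min room-temperature loading with 2 μM Fluo-8 AM.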

human FXR (NR1H4) = target: T1, human FXR (NR1H4) (Homo sapiens, UniProt Q96RI1); assay: Human FXR (NR1H4) agonist assessment, FXRE-NanoLuc reporter in HEK293T cells; assay type: cell-based; details: FXR activation, HEK293T FXRE-NanoLuc reporter, 24 hr; for EC50: read-out: EC50
T1 sequence (Q96RI1 1-476 isoform Q96RI1-1): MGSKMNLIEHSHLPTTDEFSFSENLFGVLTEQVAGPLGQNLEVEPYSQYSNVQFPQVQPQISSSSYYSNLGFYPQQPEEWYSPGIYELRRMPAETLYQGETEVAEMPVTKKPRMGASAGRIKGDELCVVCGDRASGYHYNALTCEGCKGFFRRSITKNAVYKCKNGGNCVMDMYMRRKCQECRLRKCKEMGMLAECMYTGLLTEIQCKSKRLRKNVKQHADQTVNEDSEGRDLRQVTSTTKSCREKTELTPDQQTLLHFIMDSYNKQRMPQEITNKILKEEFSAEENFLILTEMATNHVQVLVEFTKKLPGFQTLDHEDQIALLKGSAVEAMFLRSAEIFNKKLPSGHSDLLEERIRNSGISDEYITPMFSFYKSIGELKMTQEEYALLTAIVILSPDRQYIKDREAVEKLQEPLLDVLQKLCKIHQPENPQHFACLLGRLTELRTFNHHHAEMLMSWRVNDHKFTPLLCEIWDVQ
Outline: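 Read-out was NanoLuc luminescence in culture medium, measured 5 min after adding coelenterazine. Cells were HEK293T stably carrying human FXR and an FXRE reporter, exposed to compound for 24 hr at 37 °C. Vehicle was 0.01% DMSO. EC50 was obtained from sigmoid fits of gradient dilutions.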

Chain of MRGPRX4 (Q96LA9 whole entry): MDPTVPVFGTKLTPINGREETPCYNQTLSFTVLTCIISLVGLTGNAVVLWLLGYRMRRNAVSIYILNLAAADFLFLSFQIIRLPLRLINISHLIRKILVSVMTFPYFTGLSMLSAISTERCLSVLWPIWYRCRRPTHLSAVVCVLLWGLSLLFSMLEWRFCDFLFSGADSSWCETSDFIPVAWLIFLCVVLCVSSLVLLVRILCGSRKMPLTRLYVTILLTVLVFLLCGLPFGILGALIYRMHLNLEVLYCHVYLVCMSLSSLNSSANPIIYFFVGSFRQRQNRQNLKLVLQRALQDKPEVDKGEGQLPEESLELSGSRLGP

| SMILES | EC50 (MRGPRX4) | Activation (%) (MRGPRX4; second E3-8-1, 4.6 nM, n = 1) | Activation (%) (MRGPRX4; second E3-8-1, 4.6 nM, n = 2) | Activation (%) (MRGPRX4; second E3-8-1, 14 nM, n = 1) | Activation (%) (MRGPRX4; second E3-8-1, 14 nM, n = 2) | Activation (%) (MRGPRX4; second E3-8-1, 41 nM, n = 1) | Activation (%) (MRGPRX4; second E3-8-1, 41 nM, n = 2) | Activation (%) (MRGPRX4; second E3-8-1, 123 nM, n = 1) | Activation (%) (MRGPRX4; second E3-8-1, 123 nM, n = 2) | Activation (%) (MRGPRX4; second E3-8-1, 370 nM, n = 1) | Activation (%) (MRGPRX4; second E3-8-1, 370 nM, n = 2) | Activation (%) (MRGPRX4; second E3-8-1, 1111 nM, n = 1) | Activation (%) (MRGPRX4; second E3-8-1, 1111 nM, n = 2) | Activation (%) (MRGPRX4; second E3-8-1, 3333 nM, n = 1) | Activation (%) (MRGPRX4; second E3-8-1, 3333 nM, n = 2) | Activation (%) (MRGPRX4; second E3-8-1, 10000 nM, n = 1) | Activation (%) (MRGPRX4; second E3-8-1, 10000 nM, n = 2) | Activation (%) (MRGPRX4; second E3-8-1, 30000 nM, n = 1) | Activation (%) (MRGPRX4; second E3-8-1, 30000 nM, n = 2) | Efficacy (maximum measured induction of NanoLuc, normalized to CDCA set as 100%) (human FXR (NR1H4)) | also measured |
| --- | --- | --- | --- | --- | --- | --- | --- | --- | --- | --- | --- | --- | --- | --- | --- | --- | --- | --- | --- | --- | --- |
| CC[C@H]1[C@@H](O)[C@@H]2[C@H](CC[C@]3(C)[C@@H]([C@H](C)COC(=O)NS(=O)(=O)c4ccc(C(C)(C)CF)cc4)CC[C@@H]23)[C@@]2(C)CCCC[C@@H]12 [18-1] | > 100 µM | 3.17% | 2.86% | 2.86% | 3.17% | 2.55% | 3.48% | 2.55% | 3.17% | 3.17% | 3.48% | 2.86% | 2.86% | 1.93% | 2.55% | 2.86% | 3.79% | 2.24% | 2.24% | A (efficacy >400%) | MRGPRX4 activation, Average (MRGPRX4; E3-9, Conc. (Log[M]) −4.0): 0.168; MRGPRX4 activation, Average (MRGPRX4; E3-9, Conc. (Log[M]) −4.5): 0.003; MRGPRX4 activation, Average (MRGPRX4; E3-9, Conc. (Log[M]) −5.0): 0.008; MRGPRX4 activation, Average (MRGPRX4; E3-9, Conc. (Log[M]) −5.4): 0.019; MRGPRX4 activation, Average (MRGPRX4; E3-9, Conc. (Log[M]) −5.9): 0.018; EC50 (human FXR (NR1H4)): < 1 µM |
| CC[C@H]1[C@@H](O)[C@@H]2[C@H](CC[C@]3(C)[C@@H]([C@H](C)COC(=O)NS(=O)(=O)c4ccc5c(c4)CCC(C)(C)O5)CC[C@@H]23)[C@@]2(C)CCCC[C@@H]12 [18-2] | > 100 µM | 2.86% | 3.17% | 3.79% | 3.79% | 3.17% | 1.93% | 3.48% | 2.86% | 3.48% | 3.48% | 2.24% | 2.55% | 3.17% | 1.93% | 3.48% | 2.24% | 4.10% | 3.48% | A (efficacy >400%) | EC50 (human FXR (NR1H4)): < 1 µM |
| CC[C@H]1[C@@H](O)[C@@H]2[C@H](CC[C@]3(C)[C@@H]([C@H](C)COC(=O)NS(=O)(=O)c4ccc(N5CCCCC5)nc4)CC[C@@H]23)[C@@]2(C)CCCC[C@@H]12 [18-3] | > 100 µM | 3.17% | 2.86% | 2.86% | 2.55% | 2.86% | 2.55% | 2.86% | 2.86% | 2.24% | 3.48% | 2.55% | 2.24% | 3.17% | 2.24% | 2.24% | 2.86% | 1.63% | 0.08% | A (efficacy >400%) | MRGPRX4 activation, Average (MRGPRX4; E3-9, Conc. (Log[M]) −4.0): 0.519; MRGPRX4 activation, Average (MRGPRX4; E3-9, Conc. (Log[M]) −4.5): 0.027; MRGPRX4 activation, Average (MRGPRX4; E3-9, Conc. (Log[M]) −5.0): 0.021; MRGPRX4 activation, Average (MRGPRX4; E3-9, Conc. (Log[M]) −5.4): 0.018; MRGPRX4 activation, Average (MRGPRX4; E3-9, Conc. (Log[M]) −5.9): 0.018; EC50 (human FXR (NR1H4)): < 1 µM |
